Test results reported in patent publication US20240415819A1, “MACROCYCLIC COMPOUNDS AS PROTEASOME SUBUNIT BETA TYPE-5 INHIBITORS” (Lead Discovery Center GmbH, priority 2021, published 2024).

How the values were obtained:
[1] = molecular target: T1, β5 subunit of the human constitutive proteasome (CPS) (Homo sapiens, UniProt P28074); assay: β5 inhibition assay, human constitutive proteasome (Suc-LLVY-AMC); assay type: biochemical; conditions: IC50 class, Suc-LLVY-AMC substrate
T1 construct: purchased Boston Biochem E-360
Method: The enzymatic activity of the β5 subunit of the human constitutive proteasome (CPS) is analyzed. In another assay, which differs from the assay of the human constitutive proteasome only in using the human immunoproteasome (IPS) the enzymatic activity of the β5 subunit of the human immunoproteasome (IPS) is analyzed. […] Inhibition is indicated as IC50 [nM] (“-”=not measured).

[2] = molecular target: T2, β5 subunit of the human immunoproteasome (IPS) (Homo sapiens, UniProt P28062); assay: β5 inhibition assay, human immunoproteasome (Suc-LLVY-AMC); assay type: biochemical; conditions: IC50 class, Suc-LLVY-AMC substrate
T2 construct: purchased Boston Biochem E-370
Method in brief: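 Human immunoproteasome (1 nM final) was preincubated 10 min at RT with compound in 100 mM HEPES pH 7.5, 50 mM NaCl, 0.02% SDS, 1 mM DTT. Suc-LLVY-AMC (22.6 μM final) was then added for 4 h at RT in the dark. After stopping with 1 μM bortezomib, AMC fluorescence was read (ex 355/em 460 nm).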

HT-29 cells = assay: CellTiter-Glo luminescent cell viability assay with HT-29 cells (72h incubation); assay type: cell-based, human; conditions: Homo sapiens, HT-29, HT29 cells, read-out: CTG HT29
Method in brief: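 400 cells per well in DMEM/10% FCS were dosed after 24 h and kept 72 h at 37 °C, 5% CO2. ATP-based luminescence (CellTiter-Glo) normalized to DMSO and 10 μM staurosporine controls; IC50 by dose-response fit.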

[3] = system: A549 (human lung carcinoma cell line); assay: Glo assay of A549 cells (Table 3; ProteasomeGlo plating scheme); assay type: cell-based; conditions: Homo sapiens; A549 cells; read-out: PGLo A549
Method in brief: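 Compound treatment lasts 105 minutes at 37° C. under 5% CO2. Suc-LLVY-Glo substrate premixed with detection reagent (60 min at room temperature) is then added directly to the cells, and luminescence after 10-15 min in the dark gives the IC50 in nM.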

## Cc1ccc2cc1CNC(=O)[C@H](CCc1ccccc1)NC(=O)[C@@H](NC(=O)OCc1ccccc1)CCCCC(=O)NCCCCO2 [Compound 347, benzyl ((13S,16S)-1^4-methyl-8,14,17-trioxo-16-phenethyl-2-oxa-7,15,18-triaza-1(1,3)-benzenacyclononadecaphane-13-yl)carbamate]
[1]
  IC50: < 100 nM
[2]
  IC50: < 100 nM
HT-29 cells
  IC50: < 100 nM
[3]
  IC50: 100 to 500 nM

## Cc1ccc2cc1CNC(=O)C(CCc1ccc(C3(C)COC3)cc1)NC(=O)[C@@H](NC(=O)OCc1ccccc1)CC(=O)N1CCCC(CCO2)C1 (stereo partly drawn) [Compound 510, benzyl ((12S)-5^4-methyl-9-(4-(3-methyloxetan-3-yl)phenethyl)-8,11,14-trioxo-4-oxa-7,10-diaza-1(3,1)-piperidina-5(1,3)-benzenacyclotetradecaphane-12-yl)carbamate]
[1]
  IC50: < 100 nM
[2]
  IC50: < 100 nM
HT-29 cells
  IC50: < 100 nM
[3]
  IC50: < 100 nM

## COC(C(=O)N[C@H]1CC(=O)N2CCCC(CCOc3ccc(C)c(c3)CNC(=O)[C@H](CCc3ccccc3)NC1=O)C2)c1ccc(N)cc1 (stereo partly drawn) [Compound 326, 2-(4-aminophenyl)-2-methoxy-N-((9S,12S)-5^4-methyl-8,11,14-trioxo-9-phenethyl-4-oxa-7,10-diaza-1(3,1)-piperidina-5(1,3)-benzenacyclotetradecaphane-12-yl)acetamide]
[1]
  IC50: < 100 nM
[2]
  IC50: < 100 nM
HT-29 cells
  IC50: < 100 nM
[3]
  IC50: < 100 nM

## Cc1ccc2cc1CNC(=O)[C@H](CCc1ccccc1)NC(=O)[C@@H](NC(=O)c1ccc3cc(N)ccc3c1)CC(=O)N1CCCC(CCO2)C1 (stereo partly drawn) [Compound 339, 6-amino-N-((9S,12S)-5^4-methyl-8,11,14-trioxo-9-phenethyl-4-oxa-7,10-diaza-1(3,1)-piperidina-5(1,3)-benzenacyclotetradecaphane-12-yl)-2-naphthamide]
[1]
  IC50: < 100 nM
[2]
  IC50: < 100 nM
HT-29 cells
  IC50: < 100 nM
[3]
  IC50: 100 to 500 nM

## Cc1ccc2cc1CNC(=O)[C@H](CCc1ccccc1)NC(=O)[C@@H](NC(=O)OCc1ccccc1)CCC(=O)N1CCC(CCO2)C1 (stereo partly drawn) [Compound 350, benzyl ((9S,12S)-5^4-methyl-8,11,15-trioxo-9-phenethyl-4-oxa-7,10-diaza-1(3,1)-pyrrolidina-5(1,3)-benzenacyclopentadecaphane-12-yl)carbamate]
[1]
  IC50: < 100 nM
[2]
  IC50: < 100 nM
HT-29 cells
  IC50: < 100 nM
[3]
  IC50: < 100 nM

## CCOC(=O)N[C@H]1CC(=O)N2CCCC(CCOc3ccc(C)c(c3)CNC(=O)C(c3cnn(C)c3)NC1=O)C2 (stereo partly drawn) [Compound 363, Ethyl ((12S)-5^4-methyl-9-(1-methyl-1H-pyrazol-4-yl)-8,11,14-trioxo-4-oxa-7,10-diaza-1(3,1)-piperidina-5(1,3)-benzenacyclotetradecaphane-12-yl)carbamate]
[1]
  IC50: < 100 nM
[2]
  IC50: < 100 nM
HT-29 cells
  IC50: < 100 nM
[3]
  IC50: < 100 nM

## Cc1ccc2cc1CNC(=O)[C@H](CCc1ccccc1)NC(=O)[C@@H](NC(=O)OCc1ccccc1)CC(=O)N1CC(CCO2)CC2CCCCC21 (stereo partly drawn) [Compound 314, benzyl ((9S,12S)-5^4-methyl-8,11,14-trioxo-9-phenethyl-11,12,13,14,14a,15,16,17,18,18a-decahydro-4-oxa-7,10-diaza-1(3,1)-quinolina-5(1,3)-benzenacyclotetradecaphane-12-yl)carbamate]
[1]
  IC50: < 100 nM
[2]
  IC50: < 100 nM
HT-29 cells
  IC50: < 100 nM
[3]
  IC50: < 100 nM

## Cc1ccc2cc1CNC(=O)[C@H](CCc1ccccc1)NC(=O)[C@@H](NC(=O)OCc1ccccc1)CC(=O)N1CCCC3(CC(C3)O2)C1 [Compound 300]
[1]
  IC50: 100 to 500 nM
[2]
  IC50: < 100 nM
HT-29 cells
  IC50: 100 to 500 nM
[3]
  IC50: 1000 to 5000 nM

## Cc1ccc2cc1CNC(=O)[C@H](CCc1ccccc1)NC(=O)[C@@H](NC(=O)C(C)c1ccc(N)cc1)CC(=O)N1CCCC(CCO2)C1 (stereo partly drawn) [Compound 309, 2-(4-aminophenyl)-N-((9S,12S)-5^4-methyl-8,11,14-trioxo-9-phenethyl-4-oxa-7,10-diaza-1(3,1)-piperidina-5(1,3)-benzenacyclotetradecaphane-12-yl)propanamide]
[1]
  IC50: < 100 nM
[2]
  IC50: < 100 nM
HT-29 cells
  IC50: < 100 nM
[3]
  IC50: < 100 nM

## Cc1ccc2cc1CNC(=O)[C@H](CCc1ccccc1)NC(=O)[C@@H](NC(=O)OCc1ccccc1)CCCC(=O)NCCCCO2 [Compound 322, benzyl ((12S,15S)-1^4-methyl-8,13, 16-trioxo-15-phenethyl-2-oxa-7,14,17-triaza-1(1,3)-benzenacyclooctadecaphane-12-yl)carbamate]
[1]
  IC50: < 100 nM
[2]
  IC50: < 100 nM
HT-29 cells
  IC50: 100 to 500 nM
[3]
  IC50: 1000 to 5000 nM

## Cc1ccc2cc1CNC(=O)[C@H](CCc1ccccc1)NC(=O)[C@@H](NC(=O)Cc1nc(-c3ccncc3)n[nH]1)CC(=O)N1CCCC(CCO2)C1 (stereo partly drawn) [Compound 329, N-((9S,12S)-5^4-methyl-8,11,14-trioxo-9-phenethyl-4-oxa-7,10-diaza-1(3,1)-piperidina-5(1,3)-benzenacyclotetradecaphane-12-yl)-2-(3-(pyridin-4-yl)-1H-1,2,4-triazol-5-yl)acetamide]
[1]
  IC50: < 100 nM
[2]
  IC50: < 100 nM
HT-29 cells
  IC50: < 100 nM
[3]
  IC50: 100 to 500 nM

## Cc1ccc2cc1CNC(=O)[C@H](CCc1ccccc1)NC(=O)[C@@H](NC(=O)OCc1ccccc1)CC(=O)N1CCCC(CCO2)C1 (stereo partly drawn) [Compound 7, benzyl ((9S,12S)-5^4-methyl-8,11,14-trioxo-9-phenethyl-4-oxa-7,10-diaza-1(3,1)-piperidina-5(1,3)-benzenacyclotetradecaphane-12-yl)carbamate]
[1]
  IC50: < 100 nM
[2]
  IC50: < 100 nM
HT-29 cells
  IC50: < 100 nM
[3]
  IC50: < 100 nM

## CC(=O)N[C@H]1CC(=O)N2CCCC(CCOc3ccc(C)c(c3)CNC(=O)[C@H](CCc3ccccc3)NC1=O)C2 (stereo partly drawn) [Compound 33, N-((9S,12S)-5^4-methyl-8,11,14-trioxo-9-phenethyl-4-oxa-7,10-diaza-1(3,1)-piperidina-5(1,3)-benzenacyclotetradecaphane-12-yl)acetamide]
[1]
  IC50: < 100 nM
[2]
  IC50: < 100 nM
HT-29 cells
  IC50: < 100 nM
[3]
  IC50: < 100 nM

## Cc1ccc2cc1CNC(=O)C(CCc1ccncc1)NC(=O)[C@@H](NC(=O)Cc1ccc(N)cc1F)CC(=O)N1CCCC(CCO2)C1 (stereo partly drawn) [Compound 344, 2-(4-amino-2-fluorophenyl)-N-((12S)-5^4-methyl-8,11,14-trioxo-9-(2-(pyridin-4-yl)ethyl)-4-oxa-7,10-diaza-1(3,1)-piperidina-5(1,3)-benzenacyclotetradecaphane-12-yl)acetamide]
[1]
  IC50: < 100 nM
[2]
  IC50: < 100 nM
HT-29 cells
  IC50: < 100 nM
[3]
  IC50: < 100 nM

## Cc1ccc2cc1CNC(=O)C(c1cnn(C)c1)NC(=O)CCCCC(=O)N1CCCC(CCO2)C1 (centres unmarked) [Compound 356, 5^4-methyl-9-(1-methyl-1H-pyrazol-4-yl)-4-oxa-7,10-diaza-1(3,1)-piperidina-5(1,3)-benzenacyclohexadecaphane-8,11,16-trione]
[1]
  IC50: 500 to 1000 nM
[2]
  IC50: < 100 nM
HT-29 cells
  IC50: 500 to 1000 nM
[3]
  IC50: 500 to 1000 nM

## Cc1cc2cc(c1C)CNC(=O)C(c1cnn(C)c1)NC(=O)CCC(=O)N1CCCC(CCO2)C1 (centres unmarked) [Compound 355, 5^4,5^5-dimethyl-9-(1-methyl-1H-pyrazol-4-yl)-4-oxa-7,10-diaza-1(3,1)-piperidina-5(1,3)-benzenacyclotetradecaphane-8,11,14-trione]
[1]
  IC50: 1000 to 5000 nM
[2]
  IC50: < 100 nM
HT-29 cells
  IC50: 1000 to 5000 nM
[3]
  IC50: > 5000 nM

## Cc1ccc2cc1CNC(=O)C(CCc1ccccc1)NC(=O)[C@@H](NC(=O)OCc1ccccc1)CC(=O)N1CCCC(CCO2)C1 (stereo partly drawn) [Compound 503, benzyl ((12S)-9-phenethyl-5^4-methyl-8,11,14-trioxo-4-oxa-7,10-diaza-1(3,1)-piperidina-5(1,3)-benzenacyclotetradecaphane-12-yl)carbamate]
[1]
  IC50: < 100 nM
[2]
  IC50: < 100 nM
HT-29 cells
  IC50: < 100 nM
[3]
  IC50: 100 to 500 nM

## CC(=O)N[C@H]1CC(=O)N2CCCC(CCOc3cccc(c3)CNC(=O)[C@H](CCc3ccccc3)NC1=O)C2 (stereo partly drawn) [Compound 364, N-((9S,12S)-8,11,14-trioxo-9-phenethyl-4-oxa-7,10-diaza-1(3,1)-piperidina-5(1,3)-benzenacyclotetradecaphane-12-yl)acetamide]
[1]
  IC50: < 100 nM
[2]
  IC50: < 100 nM
HT-29 cells
  IC50: < 100 nM
[3]
  IC50: < 100 nM

## CC(=O)N[C@H]1CC(=O)N(C)CCCCOc2ccc(C)c(c2)CNC(=O)[C@H](CCc2ccccc2)NC1=O [Compound 296, N-(1^4,7-dimethyl-8,11,14-trioxo-13-phenethyl-2-oxa-7,12,15-triaza-1(1,3)-benzenacyclohexadecaphane-10-yl)acetamide]
[1]
  IC50: 500 to 1000 nM
[2]
  IC50: 100 to 500 nM
HT-29 cells
  IC50: 100 to 500 nM
[3]
  IC50: 500 to 1000 nM

## CC(=O)N[C@H]1CC(=O)N2CCCC(CCOc3ccc(C)c(c3)CNC(=O)C(CCc3nccs3)NC1=O)C2 (stereo partly drawn) [Compound 563, N-((12S)-5^4-methyl-8,11,14-trioxo-9-(2-(thiazol-2-yl)ethyl)-4-oxa-7,10-diaza-1(3,1)-piperidina-5(1,3)-benzenacyclotetradecaphane-12-yl)acetamide]
[1]
  IC50: < 100 nM
[2]
  IC50: < 100 nM
HT-29 cells
  IC50: < 100 nM
[3]
  IC50: < 100 nM
